Source: PubChem BioAssay AID224 (DTP/NCI, 2004)
Values joined by “and” are separate entries in the source; they are usually repeats but may differ in a detail not shown here. Identical values can stand only once. Toxic doses and inconclusive results are not listed. How the source made its calls: active means survival T/C of 150% or more; inactive means T/C below 125% in these data.

Test system: P335 leukemia ip, BDF1 mice, survival T/C %
Experiment: NCI In Vivo Anticancer Drug Screen. Data for tumor model P335 Leukemia (intraperitoneal) in B6D2F1 (BDF1) mice
Conditions: endpoint: mean survival time, higher = longer survival
Description: The antitumor activity of compounds was measured in mice bearing transplantable tumors. Survival or tumor size were measured and the results are expressed as the measurement made in the treated group (T) divided by the measurement made in the vehicle treated control group (C). The tumor model used in this assay is P335 Leukemia (intraperitoneal) in B6D2F1 (BDF1) mice

[1] = dose: 12.5 mg/kg/injection, schedule: Q01DX Z (ip), vehicle: carboxymethylcellulose (CMC)
[2] = dose: 31.25 mg/kg/injection, schedule: Q01DX Z (sc), vehicle: steriod suspending solution
[3] = dose: 1.6 mg/kg/injection, schedule: Q01DX Z (ip), vehicle: carboxymethylcellulose (CMC)
[4] = dose: 3.1 mg/kg/injection, schedule: Q01DX Z (ip), vehicle: carboxymethylcellulose (CMC)
[5] = dose: 8.0 mg/kg/injection, schedule: Q01DX Z (ip), vehicle: carboxymethylcellulose (CMC)
[6] = dose: 16.0 mg/kg/injection, schedule: Q01DX Z (ip), vehicle: carboxymethylcellulose (CMC)
[7] = dose: 31.25 mg/kg/injection, schedule: Q01DX Z (ip), vehicle: carboxymethylcellulose (CMC)
[8] = dose: 62.5 mg/kg/injection, schedule: Q01DX Z (ip), vehicle: carboxymethylcellulose (CMC)
[9] = dose: 0.8 mg/kg/injection, schedule: Q01DX Z (ip), vehicle: carboxymethylcellulose (CMC)

Measured: T/C

CCN(CC)C(=S)S
inactive: dose: 125.0 mg/kg/injection, schedule: Q01DX Z (ip), vehicle: other 92 % of control | dose: 250.0 mg/kg/injection, schedule: Q01DX Z (ip), vehicle: other 105 % of control | dose: 500.0 mg/kg/injection, schedule: Q01DX Z (ip), vehicle: other 106 % of control | dose: 500.0 mg/kg/injection, schedule: Q01DX Z (ip), vehicle: water 102 % of control | dose: 1000.0 mg/kg/injection, schedule: Q01DX Z (ip), vehicle: other 103 % of control | dose: 1000.0 mg/kg/injection, schedule: Q01DX Z (ip), vehicle: water 120 % of control

C[N+](C)(C)c1ncnc2nc[nH]c12
inactive: [1] 107 % of control | dose: 25.0 mg/kg/injection, schedule: Q01DX Z (ip), vehicle: carboxymethylcellulose (CMC) 94 % of control | dose: 50.0 mg/kg/injection, schedule: Q01DX Z (ip), vehicle: carboxymethylcellulose (CMC) 110 % of control | dose: 100.0 mg/kg/injection, schedule: Q01DX Z (ip), vehicle: carboxymethylcellulose (CMC) 87 % of control and 107 % of control

CC/C(=C(/CC)c1ccc(O)cc1)c1ccc(O)cc1
inactive: dose: 15.6 mg/kg/injection, schedule: Q01DX Z (sc), vehicle: steriod suspending solution 91 % of control

CC[C@@H](c1ccc(O)cc1)[C@@H](CC)c1ccc(O)cc1
inactive: dose: 16.0 mg/kg/injection, schedule: Q01DX Z (sc), vehicle: steriod suspending solution 96 % of control | [2] 93 % of control | dose: 125.0 mg/kg/injection, schedule: Q01DX Z (sc), vehicle: steriod suspending solution 96 % of control | dose: 500.0 mg/kg/injection, schedule: Q01DX Z (sc), vehicle: steriod suspending solution 104 % of control | dose: 1000.0 mg/kg/injection, schedule: Q01DX Z (sc), vehicle: steriod suspending solution 95 % of control

C[C@]12CCC(=O)C=C1CC[C@@H]1[C@@H]2C(=O)C[C@@]2(C)[C@H]1CC[C@]2(O)C(=O)CO
inactive: dose: 3.9 mg/kg/injection, schedule: Q01DX Z (sc), vehicle: steriod suspending solution 111 % of control | [2] 101 % of control | dose: 250.0 mg/kg/injection, schedule: Q01DX Z (sc), vehicle: steriod suspending solution 94 % of control

Cn1c(N)nc2nc[nH]c2c1=S
inactive: [3] 94 % of control | [4] 94 % of control | dose: 6.3 mg/kg/injection, schedule: Q01DX Z (ip), vehicle: carboxymethylcellulose (CMC) 92 % of control

CCN(CC)c1ccc2cc3ccc(=[N+](CC)CC)cc-3oc2c1
inactive: dose: 0.31 mg/kg/injection, schedule: Q01DX Z (ip), vehicle: carboxymethylcellulose (CMC) 87 % of control | dose: 0.62 mg/kg/injection, schedule: Q01DX Z (ip), vehicle: carboxymethylcellulose (CMC) 97 % of control and 98 % of control | dose: 1.25 mg/kg/injection, schedule: Q01DX Z (ip), vehicle: carboxymethylcellulose (CMC) 108 % of control and 123 % of control

Clc1ncnc2nc[nH]c12
inactive: [5] 89 % of control | [6] 101 % of control | dose: 31.0 mg/kg/injection, schedule: Q01DX Z (ip), vehicle: carboxymethylcellulose (CMC) 89 % of control | [7] 110 % of control | [8] 101 % of control | dose: 125.0 mg/kg/injection, schedule: Q01DX Z (ip), vehicle: carboxymethylcellulose (CMC) 110 % of control

CCCCn1cnc2c(=S)nc[nH]c21
inactive: dose: 0.4 mg/kg/injection, schedule: Q01DX Z (ip), vehicle: carboxymethylcellulose (CMC) 89 % of control | [9] 87 % of control | [3] 87 % of control

CS(=O)(=O)OCCCl
inactive: [9] 98 % of control | [3] 93 % of control | [4] 102 % of control | dose: 6.2 mg/kg/injection, schedule: Q01DX Z (ip), vehicle: carboxymethylcellulose (CMC) 86 % of control

CCC(=O)O[C@H]1CC[C@H]2[C@@H]3CCC4=CC(=O)CC[C@]4(C)[C@H]3CC[C@]12C
inactive: dose: 23.43 mg/kg/injection, schedule: Q01DX Z (sc), vehicle: steriod suspending solution 114 % of control | dose: 60.0 mg/kg/injection, schedule: Q01DX Z (sc), vehicle: steriod suspending solution 106 % of control | dose: 93.75 mg/kg/injection, schedule: Q01DX Z (sc), vehicle: steriod suspending solution 114 % of control | dose: 300.0 mg/kg/injection, schedule: Q01DX Z (sc), vehicle: steriod suspending solution 122 % of control | dose: 375.0 mg/kg/injection, schedule: Q01DX Z (sc), vehicle: steriod suspending solution 107 % of control | dose: 1500.0 mg/kg/injection, schedule: Q01DX Z (sc), vehicle: steriod suspending solution 98 % of control and 113 % of control

CCOC(N)=O
inactive: dose: 63.0 mg/kg/injection, schedule: Q01DX Z (ip), vehicle: saline 95 % of control | dose: 93.75 mg/kg/injection, schedule: Q01DX Z (ip), vehicle: saline 109 % of control | dose: 125.0 mg/kg/injection, schedule: Q01DX Z (ip), vehicle: saline 108 % of control | dose: 250.0 mg/kg/injection, schedule: Q01DX Z (ip), vehicle: saline 95 % of control | dose: 500.0 mg/kg/injection, schedule: Q01DX Z (ip), vehicle: saline 112 % of control

O=C(O)CCCc1ccc(N(CCCl)CCCl)cc1
inactive: dose: 6.25 mg/kg/injection, schedule: Q01DX Z (ip), vehicle: carboxymethylcellulose (CMC) 89 % of control | [1] 89 % of control

CCCCCCCCCCCCNCCCCCCCCCCCC
inactive: dose: 3.75 mg/kg/injection, schedule: Q01DX Z (ip), vehicle: carboxymethylcellulose (CMC) 91 % of control | dose: 7.5 mg/kg/injection, schedule: Q01DX Z (ip), vehicle: carboxymethylcellulose (CMC) 115 % of control | dose: 15.0 mg/kg/injection, schedule: Q01DX Z (ip), vehicle: carboxymethylcellulose (CMC) 92 % of control | dose: 30.0 mg/kg/injection, schedule: Q01DX Z (ip), vehicle: carboxymethylcellulose (CMC) 88 % of control

C1CN1c1nc(N2CC2)nc(N2CC2)n1
inactive: dose: 0.9 micrograms/kg/injection, schedule: Q01DX Z (ip), vehicle: saline 87 % of control | dose: 1.9 micrograms/kg/injection, schedule: Q01DX Z (ip), vehicle: saline 90 % of control | dose: 7.8 micrograms/kg/injection, schedule: Q01DX Z (ip), vehicle: saline 90 % of control and 114 % of control

CCN(CC)CCNc1ccc(C)c2sc3ccccc3c(=O)c12
inactive: dose: 0.78 mg/kg/injection, schedule: Q01DX Z (ip), vehicle: methylcellulose (MC) 89 % of control | dose: 6.25 mg/kg/injection, schedule: Q01DX Z (ip), vehicle: methylcellulose (MC) 92 % of control | dose: 50.0 mg/kg/injection, schedule: Q01DX Z (ip), vehicle: methylcellulose (MC) 89 % of control | dose: 100.0 mg/kg/injection, schedule: Q01DX Z (ip), vehicle: methylcellulose (MC) 93 % of control

C[C@@H]1C[C@@H]([C@H](O)CC2CC(=O)NC(=O)C2)C(=O)[C@@H](C)C1
inactive: dose: 0.78 mg/kg/injection, schedule: Q01DX Z (ip), vehicle: water 113 % of control | dose: 1.56 mg/kg/injection, schedule: Q01DX Z (ip), vehicle: water 106 % of control and 112 % of control | dose: 3.12 mg/kg/injection, schedule: Q01DX Z (ip), vehicle: water 89 % of control | dose: 6.25 mg/kg/injection, schedule: Q01DX Z (ip), vehicle: water 100 % of control | dose: 12.5 mg/kg/injection, schedule: Q01DX Z (ip), vehicle: water 106 % of control | dose: 25.0 mg/kg/injection, schedule: Q01DX Z (ip), vehicle: water 100 % of control | dose: 50.0 mg/kg/injection, schedule: Q01DX Z (ip), vehicle: water 111 % of control

CCCCNc1ncnc2c1cnn2C
inactive: dose: 4.0 mg/kg/injection, schedule: Q01DX Z (ip), vehicle: carboxymethylcellulose (CMC) 86 % of control | [5] 86 % of control | [6] 96 % of control | [7] 101 % of control | [8] 93 % of control
